Laboratory results: patent US9250241B2, “Use of micropatterned soft substrate for measuring of cell traction forces” (COMMISSARIAT A L'ENERGIE ATOMIQUE ET AUX ENERGIES …, priority 2011, dated 2016)

Columns and labels:
[1] = tested on: MCF10A expressing inducible ErbB2 receptor; assay: Cell traction force measurement by crossbow micropattern bar length on micropatterned PAA, ErbB2 inducible cells; type: cell-based, human; settings: 1 μM, 48 hr before traction force measurement; FIG. 5C
Description: When actin cables have an unpredictable spatial distribution, a given deformation cannot be directly assigned to a defined force magnitude. Indeed, forces applied on adjacent adhesion sites both affect local deformations, due to the continuous nature of the substrate. Each deformation results from local and distant forces. So the calculation of the force field is highly dependent on the spatial distribution of force application sites and the relationship between deformation and forces varies from one cell to the other. The inventors hypothesized that in cells developing a reproducible architecture and a controlled pattern of force application, a given local deformation could be assigned to a defined value of the contractile force. […] When the deformation was measured along the shortest, and therefore most contracted, cell axis, the correlation was improved (FIG. 4C). […] On the crossbow, a single image acquisition was sufficient to measure the bar length and read the corresponding average cell traction force using the calibration curve (FIG. 4F). […]
The culture of MCF10A cells and the generation of ΔCK2β cell line was described previously (Deshiere et al (2008) Mol Cell Biochem 316(1-2):107-113). […] Substrate relaxation was assessed by detaching cells with trypsin. […]

MCF10A cells = assay: Cell traction force measurement by crossbow micropattern bar length on micropatterned PAA; type: cell-based, human
Procedure: Non-tumorigenic human epithelial cells from the mammary gland, MCF10A, were plated on the micropatterned PAA substrates. Cells specifically attached to the fibronectin coated micropatterns since non-exposed PAA regions prevented protein adsorption (FIG. 2D). The effect of micropattern geometry on cell traction forces orientation was tested on various shapes: disc, pacman and crossbow (FIG. 3A). Spread cells exerted traction forces on the micropattern that could be measured by looking at the displacement of fluorescent beads embedded in the PAA gel (see FIG. 3B and Material and Methods). Particle Image Velocimetry followed by individual particle tracking were used to measure bead displacements (Marganski et al (2003) Methods Enzymol 361:197-211; Sabass et al (2008) Biophys J 94(1):207-220). Force fields were calculated from the bead displacement fields by using the Fourier transform traction cytometry (Sabass et al, supra; Butler et al (2002) Am J Physiol Cell Physiol 282(3):C595-605). Force fields exerted by individual cells were overlaid and averaged to quantify their reproducibility (FIG. 3C,D). On homogeneously coated regions cells developed forces that were randomly distributed from one cell to the other. In cells constrained on disc shaped micropatterns, forces were still randomly oriented but their magnitudes were lowered due to reduced cell spreading. In cells constrained on pacman shaped micropatterns, forces distribution was geometrically biased due to enhanced cell contraction above non adhesive regions. […] Importantly, most of the traction forces were reproducibly oriented upward, along the straight adhesive bar on the extremity of which the inventors measured the highest pressure (FIG. 3D). […]
When actin cables have an unpredictable spatial distribution, a given deformation cannot be directly assigned to a defined force magnitude. […] When the deformation was measured along the shortest, and therefore most contracted, cell axis, the correlation was improved (FIG. 4C). […]

CCC(C)(C)C(=O)C(=O)N1CCCC[C@H]1C(=O)O[C@H](CCc1ccc(OC)c(OC)c1)c1cccc(OCC(=O)NCCNC(=O)COc2cccc([C@@H](CCc3ccc(OC)c(OC)c3)OC(=O)[C@@H]3CCCCN3C(=O)C(=O)C(C)(C)CC)c2)c1 [AP1510]
level of cell contraction versus WT cells [1]: no significant changes in the level of cell contraction

Cc1ccc2c(c1)C(=O)C1(O)CCN(c3ccccc3)C1=N2 (stereo not shown) [Blebbistatin]
force magnitude decrease over time (MCF10A cells; 50 μM, single cell, FIG. 5B): follows a single exponential decay | force inhibition profile in response to increasing dose (MCF10A cells; increasing drug concentrations successively applied to 6 cells, crossbow bar length, FIG. 5A): matched the myosin II inhibition profile

TGFb1: known to induce epithelial to mesenchymal transition (R&D systems)
level of cell contraction versus WT cells (crossbow shortening) (MCF10A cells; 2 ng/mL for 2 days before plating, FIG. 5C): significantly higher level of cell contraction
